Results reported in PubChem BioAssay (NCI).
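GI50: concentration for 50% inhibition of growth. TGI is the concentration that stops growth completely.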

Assays:
Test in all cases: NCI anticancer screen, dose series, 384-well format
786-0 renal = system: 786-0 renal
A498 renal = system: A498 renal
A549 NSCLC = system: A549 NSCLC
ACHN renal = system: ACHN renal
BT-549 breast = system: BT-549 breast
CAKI-1 renal = system: CAKI-1 renal
CCRF-CEM leukemia = system: CCRF-CEM leukemia
COLO 205 colon = system: COLO 205 colon
DU-145 prostate = system: DU-145 prostate
EKVX NSCLC = system: EKVX NSCLC
HCC-2998 colon = system: HCC-2998 colon
HCT-116 colon = system: HCT-116 colon
HCT-15 colon = system: HCT-15 colon
HL-60(TB) leukemia = system: HL-60(TB) leukemia
HOP-62 NSCLC = system: HOP-62 NSCLC
HOP-92 NSCLC = system: HOP-92 NSCLC
HS 578T breast = system: HS 578T breast
HT29 colon = system: HT29 colon
IGROV1 ovarian = system: IGROV1 ovarian
K-562 leukemia = system: K-562 leukemia
KM12 colon = system: KM12 colon
LOX IMVI melanoma = system: LOX IMVI melanoma
M14 melanoma = system: M14 melanoma
MALME-3M melanoma = system: MALME-3M melanoma
MCF7 breast = system: MCF7 breast
MDA-MB-231 breast = system: MDA-MB-231 breast
MDA-MB-435 melanoma = system: MDA-MB-435 melanoma
MOLT-4 leukemia = system: MOLT-4 leukemia
NCI-H226 lung = system: NCI-H226 lung
NCI-H23 lung = system: NCI-H23 lung
NCI-H322M lung = system: NCI-H322M lung
NCI-H460 NSCLC = system: NCI-H460 NSCLC
NCI-H522 lung = system: NCI-H522 lung
NCI/ADR-RES ovarian = system: NCI/ADR-RES ovarian
OVCAR-3 ovarian = system: OVCAR-3 ovarian
OVCAR-4 ovarian = system: OVCAR-4 ovarian
OVCAR-5 ovarian = system: OVCAR-5 ovarian
OVCAR-8 ovarian = system: OVCAR-8 ovarian
PC-3 prostate = system: PC-3 prostate
RPMI-8226 leukemia = system: RPMI-8226 leukemia
RXF 393 renal = system: RXF 393 renal
SF-268 CNS = system: SF-268 CNS
SF-295 CNS = system: SF-295 CNS
SF-539 CNS = system: SF-539 CNS
SK-MEL-28 melanoma = system: SK-MEL-28 melanoma
SK-MEL-5 melanoma = system: SK-MEL-5 melanoma
SK-OV-3 ovarian = system: SK-OV-3 ovarian
SN12C renal = system: SN12C renal
SNB-19 CNS = system: SNB-19 CNS
SNB-75 CNS = system: SNB-75 CNS
SW-620 colon = system: SW-620 colon
T-47D breast = system: T-47D breast
TK-10 renal = system: TK-10 renal
U251 glioblastoma = system: U251 glioblastoma
UACC-257 melanoma = system: UACC-257 melanoma
UACC-62 melanoma = system: UACC-62 melanoma
UO-31 renal = system: UO-31 renal

`CNC(=O)c1ccccc1Nc1cc(Nc2ccc(N3CCOCC3)cc2OC)ncc1C(F)(F)F` showed a GI50 ([…]-0 renal) of 2.75 µM, a TGI (786-0 renal) of 19.8 µM and a GI50 (A498 renal) of 11 µM. It also gave a TGI (A498 renal) of 28.3 µM, a GI50 (A549 NSCLC) of 0.371 µM and a TGI (A549 NSCLC) of 13 µM. The GI50 (ACHN renal) was 5.62 µM, the TGI (ACHN renal) was 69.7 µM and the GI50 (BT-549 breast) was 2.82 µM. It also gave a TGI (BT-549 breast) of 9.86 µM, a GI50 (CAKI-1 renal) of 6.33 µM and a TGI (CAKI-1 renal) of 21 µM. The GI50 (CCRF-CEM leukemia) was 0.722 µM, the TGI (CCRF-CEM leukemia) was 11.5 µM and the GI50 (COLO 205 colon) was 0.309 µM. It also gave a TGI (COLO 205 colon) of 1.85 µM, a GI50 (DU-145 prostate) of 1.97 µM and a TGI (DU-145 prostate) of 24.3 µM. The GI50 (EKVX NSCLC) was 0.653 µM, the TGI (EKVX NSCLC) was 11.8 µM and the GI50 (HCC-2998 colon) was 0.654 µM. The TGI (HCC-2998 colon) was 15.8 µM, the GI50 (HCT-116 colon) was 0.632 µM and the TGI (HCT-116 colon) was 13.2 µM. It also gave a GI50 (HCT-15 colon) of 2.88 µM, a TGI (HCT-15 colon) of 34.2 µM and a GI50 (HL-60(TB) leukemia) of 0.375 µM. The TGI (HL-60(TB) leukemia) was 1.43 µM, the GI50 (HOP-62 NSCLC) was 2.62 µM and the TGI (HOP-62 NSCLC) was 51.3 µM. It also gave a GI50 (HOP-92 NSCLC) of 1.02 µM, a TGI (HOP-92 NSCLC) of 10.2 µM and a GI50 (HS 578T breast) of 2.78 µM. For the same molecule, the TGI (HS 578T breast) was 10.1 µM, the GI50 (HT29 colon) was 0.416 µM and the TGI (HT29 colon) was 14.1 µM. For the same molecule, the GI50 (IGROV1 ovarian) was 0.229 µM, the TGI (IGROV1 ovarian) was 12.4 µM and the GI50 (K-562 leukemia) was 2.69 µM. For the same molecule, the TGI (K-562 leukemia) was greater than 100 µM, the GI50 (KM12 colon) was 0.523 µM and the TGI (KM12 colon) was 8.06 µM. For the same molecule, the GI50 (LOX IMVI melanoma) was 1.23 µM, the TGI (LOX IMVI melanoma) was 12.1 µM and the GI50 (M14 melanoma) was 0.233 µM. It also gave a TGI (M14 melanoma) of 11.1 µM, a GI50 (MALME-3M melanoma) of 0.303 µM and a TGI (MALME-3M melanoma) of 15.1 µM. It also gave a GI50 (MCF7 breast) of 0.447 µM, a TGI (MCF7 breast) of 18.5 µM and a GI50 (MDA-MB-231 breast) of 2.76 µM. For the same molecule, the TGI (MDA-MB-231 breast) was 49.2 µM, the GI50 (MDA-MB-435 melanoma) was 0.752 µM and the TGI (MDA-MB-435 melanoma) was greater than 100 µM. For the same molecule, the GI50 (MOLT-4 leukemia) was 0.969 µM, the TGI (MOLT-4 leukemia) was 10.5 µM and the GI50 (NCI-H226 lung) was 0.876 µM. The TGI (NCI-H226 lung) was greater than 100 µM, the GI50 (NCI-H23 lung) was 0.277 µM and the TGI (NCI-H23 lung) was 9.47 µM. The GI50 (NCI-H322M lung) was 5.28 µM, the TGI (NCI-H322M lung) was 46.2 µM and the GI50 (NCI-H460 NSCLC) was 0.316 µM. The TGI (NCI-H460 NSCLC) was 10.6 µM, the GI50 (NCI-H522 lung) was 0.877 µM and the TGI (NCI-H522 lung) was 20.4 µM. The GI50 (NCI/ADR-RES ovarian) was 1.52 µM, the TGI (NCI/ADR-RES ovarian) was 4.64 µM and the GI50 (OVCAR-3 ovarian) was 4.45 µM. For the same molecule, the TGI (OVCAR-3 ovarian) was 37.9 µM, the GI50 (OVCAR-4 ovarian) was 16.1 µM and the TGI (OVCAR-4 ovarian) was greater than 100 µM. It also gave a GI50 (OVCAR-5 ovarian) of 0.66 µM, a TGI (OVCAR-5 ovarian) of 27.5 µM and a GI50 (OVCAR-8 ovarian) of 4.08 µM. It also gave a TGI (OVCAR-8 ovarian) of 19.8 µM, a GI50 (PC-3 prostate) of 15.9 µM and a TGI (PC-3 prostate) greater than 100 µM. For the same molecule, the GI50 (RPMI-8226 leukemia) was 0.35 µM, the TGI (RPMI-8226 leukemia) was 3.3 µM and the GI50 (RXF 393 renal) was 2.82 µM. For the same molecule, the TGI (RXF 393 renal) was 14 µM, the GI50 (SF-268 CNS) was 0.143 µM and the TGI (SF-268 CNS) was 1.67 µM. It also gave a GI50 (SF-295 CNS) of 2.12 µM, a TGI (SF-295 CNS) of 38.7 µM and a GI50 (SF-539 CNS) of 1.7 µM. It also gave a TGI (SF-539 CNS) of 16.8 µM, a GI50 (SK-MEL-28 melanoma) of 2 µM and a TGI (SK-MEL-28 melanoma) of 16.7 µM. For the same molecule, the GI50 (SK-MEL-5 melanoma) was 0.767 µM, the TGI (SK-MEL-5 melanoma) was 18 µM and the GI50 (SK-OV-3 ovarian) was 5.44 µM. For the same molecule, the TGI (SK-OV-3 ovarian) was 41.9 µM, the GI50 (SN12C renal) was 3.31 µM and the TGI (SN12C renal) was 27.1 µM. It also gave a GI50 (SNB-19 CNS) of 10.9 µM, a TGI (SNB-19 CNS) greater than 100 µM and a GI50 (SNB-75 CNS) of 4.25 µM. The TGI (SNB-75 CNS) was 21.4 µM, the GI50 (SW-620 colon) was 0.658 µM and the TGI (SW-620 colon) was 12.6 µM. It also gave a GI50 (T-47D breast) of 9.99 µM, a TGI (T-47D breast) of 23.3 µM and a GI50 (TK-10 renal) of 7.3 µM. It also gave a TGI (TK-10 renal) of 32 µM, a GI50 (U251 glioblastoma) of 4.4 µM and a TGI (U251 glioblastoma) of 48 µM. It also gave a GI50 (UACC-257 melanoma) of 0.397 µM, a TGI (UACC-257 melanoma) of 23.3 µM and a GI50 (UACC-62 melanoma) of 0.354 µM. It also gave a TGI (UACC-62 melanoma) of 14.4 µM, a GI50 (UO-31 renal) of 2.9 µM and a TGI (UO-31 renal) of 16.9 µM.
